The target in this test is T1, LXR β (Homo sapiens, UniProt P55055).
T1 construct: comprising full-length LXR α (pCMX-hLXR α), LXR β (pCMX-hLXR β), or RXR α (pCMX-RXR); expressed in transfected cells; host or cells: CV-1 African Green Monkey kidney cells, transient transfection
T1 sequence (P55055 1-460): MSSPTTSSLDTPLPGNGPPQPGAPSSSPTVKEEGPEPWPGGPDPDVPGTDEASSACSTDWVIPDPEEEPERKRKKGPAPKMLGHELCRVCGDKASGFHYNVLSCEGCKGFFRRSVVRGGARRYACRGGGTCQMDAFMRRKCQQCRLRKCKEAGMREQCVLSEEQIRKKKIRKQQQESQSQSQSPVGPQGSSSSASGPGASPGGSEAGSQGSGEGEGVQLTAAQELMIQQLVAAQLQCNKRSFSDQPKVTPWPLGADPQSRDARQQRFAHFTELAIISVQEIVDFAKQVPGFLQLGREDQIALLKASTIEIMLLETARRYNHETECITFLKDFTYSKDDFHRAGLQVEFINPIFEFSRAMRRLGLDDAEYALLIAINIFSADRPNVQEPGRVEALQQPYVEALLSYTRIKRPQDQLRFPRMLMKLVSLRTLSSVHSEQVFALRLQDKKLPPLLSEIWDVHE
T1 sequence (P19793 1-462 partner): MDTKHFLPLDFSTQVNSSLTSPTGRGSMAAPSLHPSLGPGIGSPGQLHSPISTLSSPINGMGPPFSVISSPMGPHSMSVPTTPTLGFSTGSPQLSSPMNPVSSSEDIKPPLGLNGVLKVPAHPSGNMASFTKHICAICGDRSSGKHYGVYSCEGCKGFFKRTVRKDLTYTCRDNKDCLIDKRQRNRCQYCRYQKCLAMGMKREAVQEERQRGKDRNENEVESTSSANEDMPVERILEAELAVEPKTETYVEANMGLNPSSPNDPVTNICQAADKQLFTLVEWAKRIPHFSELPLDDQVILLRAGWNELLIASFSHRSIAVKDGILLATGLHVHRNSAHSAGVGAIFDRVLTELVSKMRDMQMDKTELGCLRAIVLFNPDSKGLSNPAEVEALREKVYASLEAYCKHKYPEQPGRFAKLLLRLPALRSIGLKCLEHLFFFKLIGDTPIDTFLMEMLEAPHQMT
The test can be described thus: LXR/LXRE co-transfection assay (luciferase reporter, CV-1 cells). Format: cell-based. Particulars: for Emax: CV-1, average percent efficacy, relative to control N-(3-((4-fluorophenyl)-(naphthalene-2-sulfonyl)amino)propyl)-2,2-dimethylpropionamide, read-out: % Eff(b); for pEC50: average EC50 for agonism, cotransfection assay, CV-1 cells. An excerpt:
To measure the ability of compounds to activate or inhibit the transcriptional activity of LXR in a cell based assay, the co-transfection assay was used. It has been shown that LXR functions as a heterodimer with RXR. For the co-transfection assay, expression plasmids for LXR and RXR are introduced via transient transfection into mammalian cells along with a luciferase reporter plasmid that contains one copy of a DNA sequence that is bound by LXR-RXR heterodimers (LXRE; Willy, P. et al. 1995). Treatment of transfected cells with an LXR agonist increases the transcriptional activity of LXR, which is measured by an increase in luciferase activity.
1. CV-1 African Green Monkey Kidney Cells
2. Co-transfection expression plasmids, comprising full-length LXR α (pCMX-hLXR α), LXR β (pCMX-hLXR β), or RXR α (pCMX-RXR), reporter plasmid (LXREx1-Tk-Luciferase), and control (pCMX-Galactosidase expression vector) (Willey et al. Genes & Development 9 1033-1045 (1995)).
CV-1 cells were prepared 24 hours prior to the experiment by plating them into T-175 flasks or 500 cm^2 dishes in order to achieve 70-80% confluency on the day of the transfection. The number of cells to be transfected was determined by the number of plates to be screened. Each 384 well plate requires 1.92×10^6 cells or 5000 cells per well. DNA Transfection Reagent was prepared by mixing the required plasmid DNAs with a cationic lipid transfection reagent FuGENE6 (Roche) by following the instructions provided with the reagents. Optimal DNA amounts were determined empirically per cell line and size of vessel to be transfected. 10-12 mL of media was added to the DNA Transfection Reagent and this mixture was added to the cells after aspirating media from the T175 cm^2 flask. Cells were then incubated at least 5 hours at 37° C. to prepare screening cells.
Luciferase assay reagent was prepared by combining before use (per 10 mL):
Assay plates were prepared by dispensing 5 μL of compound per well of a 384 well plate to achieve final compound concentration of 10 μM and no more than 1% DMSO. Media was removed from the screening cells, the cells trypsinized, harvested cells by centrifugation, counted, and plated at a density of approximately 5000 cells per well in the 384 well assay plate prepared above in a volume of about 45 μL. Assay plates containing both compounds and screening cells (50 μL in total volume) were incubated for 20 hours at 37° C.
After incubation with compounds, media was removed from the cells and lysis buffer (30 μuL/well) added. After 30 minutes at ambient temperature, luciferase assay buffer (30 μL/well) was added and the assay plates read on a luminometer (PE Biosystems Northstar reader with on-board injectors, or equivalent). Plates were read immediately after addition of luciferase assay buffer.
The LXR/LXRE co-transfection assay can be used to establish the EC50/IC50 values for potency and percent activity or inhibition for efficacy. Efficacy defines the activity of a compound relative to a high control ((N-(3-((4-fluorophenyl)-(naphthalene-2-sulfonyl)amino)propyl)-2,2-dimethylpropionamide)) or a low control (DMSO/vehicle). The dose response curves are generated from an 8 point curve with concentrations differing by ½ LOG units. Each point represents the average of 4 wells of data from a 384 well plate.
The data from this assay is fitted to the following equation, from the EC50 value may be solved: Y=Bottom+(Top-Bottom)/(1+10^((logEC50-X*HillSlope))
The EC50/IC50 is therefore defined as the concentration at which an agonist or antagonist elicits a response that is half way between the Top (maximum) and Bottom (baseline) values. The EC50/IC50 values represented are the averages of at least 3 independent experiments. […]
On the technique in general: Reporter assays use an easily measured gene product as a stand-in for the process of interest.

pEC50: −log10 of the molar value. Where only a bound is given, the exact number is not on record here.

`Cc1ccc(Cn2c(C#CC(C)(C)O)cc3ccccc3c2=O)c(C)c1` [2-(2,4-dimethylbenzyl)-3-(3-hydroxy-3-methylbut-1-ynyl)-2H-isoquinolin-1-one]: the Emax fell in the range of 40 to 90% and the pEC50 is below 6.30.

As for `Cc1ccc(Cn2c(-c3ccc(Oc4ccccc4)cc3)cc3ccccc3c2=O)c(C)c1` [2-(2,4-dimethylbenzyl)-3-(4-phenoxyphenyl)-2H-isoquinolin-1-one], the Emax was above 90% and the pEC50 was 6.82 to 8.00.

As to `Cc1cccc(-c2cc3ccccc3c(=O)n2Cc2ccc(C)cc2C)c1` [2-(2,4-dimethylbenzyl)-3-m-tolyl-2H-isoquinolin-1-one], the Emax lay within 40 to 90% and the pEC50 was below 6.30.

As for `Cc1ccc(Cn2c(-c3ccsc3)cc3ccccc3c2=O)c(C)c1` [2-(2,4-dimethylbenzyl)-3-thiophen-3-yl-2H-isoquinolin-1-one], the Emax lay within 40 to 90% and the pEC50 was below 6.30.

`Cc1cccc(-c2cc3ccccc3c(=O)n2Cc2ccccc2)c1` [2-benzyl-3-m-tolyl-2H-isoquinolin-1-one]: the Emax fell in the range of 40 to 90% and the pEC50 is below 6.30.

As for `O=c1c2c(Cl)cccc2cc(-c2cc(-c3cc(C(F)(F)F)cc(C(F)(F)F)c3)co2)n1Cc1ccc(F)cc1F` [3-[4-(3,5-bis-trifluoromethylphenyl)furan-2-yl]-8-chloro-2-(2,4-difluorobenzyl)-2H-isoquinolin-1-one], the Emax was above 90% and the pEC50 was 6.82 to 8.00.

For `Nc1ccc(-c2coc(-c3cc4cccc(Cl)c4c(=O)n3Cc3ccc(F)cc3F)c2)cc1C(F)(F)F` [3-[4-(4-amino-3-trifluoromethylphenyl)furan-2-yl]-8-chloro-2-(2,4-difluorobenzyl)-2H-isoquinolin-1-one], the Emax is above 90% and the negative logarithm of the EC50 (pEC50) is 6.82 to 8.00.

For the compound `O=c1c2c(Cl)cccc2cc(-c2ccc(Oc3ccccc3)cc2)n1Cc1ccc(F)cc1F` [8-chloro-2-(2,4-difluorobenzyl)-3-(4-phenoxyphenyl)-2H-isoquinolin-1-one], the Emax was above 90% and the pEC50 is 6.82 to 8.00.

As to `O=c1c2c(Cl)cccc2cc(-c2ccc(Oc3cnccn3)cc2)n1Cc1ccc(F)cc1F` [8-chloro-2-(2,4-difluorobenzyl)-3-[4-(pyrazin-2-yloxy)phenyl]-2H-isoquinolin-1-one], the Emax was above 90% and the pEC50 is 6.82 to 8.00.

As to `CS(=O)(=O)c1ccc(-c2ccc(-c3cc4cccc(Cl)c4c(=O)n3Cc3ccc(F)cc3F)s2)cc1` [8-chloro-2-(2,4-difluorobenzyl)-3-[5-(4-methanesulfonylphenyl)thiophen-2-yl]-2H-isoquinolin-1-one], the Emax is above 90% and the pEC50 was above 8.00.

As for `O=c1c2c(Cl)cccc2cc(-c2ccc(Oc3ccccc3)cc2)n1CC1CCCCC1` [8-chloro-2-cyclohexylmethyl-3-(4-phenoxyphenyl)-2H-isoquinolin-1-one], the Emax is above 90% and the negative logarithm of the EC50 (pEC50) was 6.30 to 6.82.

In the case of `O=c1c2c(Cl)cccc2cc(-c2ccc(Oc3ccccc3)cc2)n1Cc1cccs1` [8-chloro-3-(4-phenoxyphenyl)-2-thiophen-2-ylmethyl-2H-isoquinolin-1-one], the Emax is above 90% and the pEC50 is 6.30 to 6.82.

As to `CCOc1ccc(-c2csc(-c3cc4cccc(Cl)c4c(=O)n3Cc3ccc(F)cc3F)c2)cc1Cl` [8-chloro-3-[4-(3-chloro-4-ethoxyphenyl)thiophen-2-yl]-2-(2,4-difluorobenzyl)-2H-isoquinolin-1-one], the Emax is above 90% and the pEC50 was 6.82 to 8.00.

On to `Cc1ccc(Cn2c(-c3ccc(Oc4ccccc4)cc3)cc3cccc(C)c3c2=O)cc1` [8-methyl-2-(4-methylbenzyl)-3-(4-phenoxyphenyl)-2H-isoquinolin-1-one], for which the Emax is 40 to 90% and the pEC50 is 6.82 to 8.00.

For orientation: pEC50 means −log10 of the EC50, conventionally taken in molar units.
